Measurements from paper PMC7483518, “Destabilizing single chain major histocompatibility complex class I protein for repurposed enterokinase proteolysis” (Scientific Reports, 2020).
Read-outs that look alike come from different tables or passages of the source.

Assays:
[1] = target: photolabile unchained HLA-A*11:01 pMHC-I protein (Homo sapiens, UniProt P04439, A114D/D185E/E176A/F33Y/L180Q/S129P/T187R); experiment: ELISA with photolabile unchained pMHC-I protein and UV irradiation; assay type: binding; details: for ELISA450nm: Table 2, 62.5 nM photolabile pMHC-I mixture, 5 μM peptide in PBS, UV 365 nm 2 × 5 min on ice, 2 h room temperature on anti-β2m plate, Abs450nm − Abs570nm, instability cutoff < 0.6
[2] = tested on: HLA-A*11:01 single chain protein; assay type: biochemical, Human; design: EZ50kDa / EZ50kD (pH 6.2) / EZ50kD (pH 8) / EZ50kD (normalised: EBV1101 = 1, EBV0201 = 0) / EZ50kDa rank: unit not given beside the values; details: for EZ50kDa rank: HLA-A*11:01 single chain protein, 9-mer peptides;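 on EZ50kD (pH 6.2): scaled with positive control peptide as 1 and negative control peptide as 0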

Row | Compound | ELISA450nm [1] | EZ50kD (pH 6.2) ([2]; pH 6.2) | EZ50kD (pH 8) [2] | also measured
1 | LLAQFTSAL [putative peptide, HBV, no IEDB entry] | 0.214 |  |  | 
2 | MVWESGCTV [IEDB 140,054, Human; a known HLA-A*02:01 antigen, reference compound] | 0.5937 |  |  | 
3 | TVVRRRCRSPR [putative peptide, HBV, no IEDB entry] | 0.4145 |  |  | 
4 | PFGSLLDYVRE [CS1035] |  |  |  | EASY_mean [1]: -0.00332
5 | AINSEMFLR [reference compound] |  | 0.9012 | 1.19 | EZ50kDa rank ([2]; pH 6.2, 37 °C): 0.901
6 | FIDSYICQV [reference compound] | 0.3491 |  |  | 
7 | TTYLGPLSCK [reference compound] |  | 1.084 | 1.911 | 
8 | KTFVDLMRR [reference compound] |  | 0.8241 | 0.165 | 
9 | LVSFLLLAGR [reference compound] |  |  | 0.07206 | 
10 | MATYGWNLVK [reference compound] |  | 0.6384 | 0.007553 | 
11 | FLLTKILTI [reference compound] | 0.1791 |  |  | 
12 | TSGSPIIDK [reference compound] |  | 0.7953 | 0.1596 | EZ50kDa rank ([2]; pH 6.2, 37 °C): 0.795
13 | TVVGRRGRSPR [putative peptide, HBV, no IEDB entry] | 1.259 |  |  | 
14 | YVSAIAQTEK [reference compound] |  | 0.3037 |  | 
15 | TTKRDLGMSK [reference compound] |  | 0.796 | 0.3796 | 
16 | LNIDLLWSV [reference compound] | 0.2738 |  |  | 
17 | GSLLDYVREH [CS1026] |  |  |  | EASY_mean [1]: -0.04117
18 | LMPFGSLLDYVR [CS1045] |  |  |  | EASY_mean [1]: 0.002285
19 | DLAQCFFCFK [reference compound] | 0.3956 |  |  | 
20 | Nc1nc(Nc2ccc3c(c2)CC[C@@H](N2CCCC2)CC3)nn1-c1cc2c(nn1)-c1ccccc1CCC2 [CS1046] |  |  |  | EASY_mean ([1]; […], mean, STDEV): -0.001122

Row | Compound | ELISA450nm [1] | EZ50kD (pH 6.2) ([2]; pH 6.2) | EZ50kD (pH 8) [2] | also measured
21 | MANEMGFLEK [reference compound] |  | 0.527 |  | 
22 | PFGSLLDYVREH [CS1047] |  |  |  | EASY_mean [1]: -0.01054
23 | FTNDSIISH [reference compound] |  | 0.6961 | 0.1339 | EZ50kDa rank ([2]; pH 6.2, 37 °C): 0.696
24 | SVQPTFSVQR [reference compound] |  | 1.051 | 0.7376 | 
25 | RTLSPRRRR [putative peptide, HBV, no IEDB entry] | 0.8658 |  |  | 
26 | GAMLFLISGK [reference compound] |  | 0.7468 | 1.036 | 
27 | MSYTMCSGK [reference compound] |  | 1.198 | 1.094 | EZ50kDa rank ([2]; pH 6.2, 37 °C): 1.198
28 | GLSPTVWLSA [reference compound] | 0.2488 |  |  | 
29 | ATVQGQNLK [reference compound] |  | 0.8968 | 0.767 | 
30 | RTQSPRRRR [reference compound] | 1.204 |  |  | 
31 | MVSRLLLNR [reference compound] |  | 1.196 | 0.2396 | 
32 | KFLPDLYDYK [reference compound] | 0.4809 |  |  | 
33 | VTRGAVLMHK [reference compound] |  | 0.6228 |  | 
34 | TVVRRRCR [putative peptide, HBV, no IEDB entry] | 0.4625 |  |  | 
35 | ATYGWNLVK [reference compound] |  | 0.8706 | 1.994 | 
36 | RSQSPRRR [putative peptide, HBV, no IEDB entry] | 0.1859 |  |  | 
37 | AVQTKPGLFK [reference compound] |  | 0.955 | 1.546 | 
38 | TLALEVAQQK [reference compound] |  | 0.7399 | 0.4517 | 
39 | LVVDFSQFSR [reference compound] |  |  |  | EZ50kD (pH 6.2) ([2]; Table 2, pH 6.2, 37 °C, enterokinase, Eq. (4), instability cutoff < 0.3): 0.9461
40 | KSGAIKVLK [reference compound] |  | 0.819 | 0.4865 | 
